What was measured:
[1] = system: WALKER-CARCINOMA (carcinosarcoma); test: anti-carcinogenic activity in rats implanted with Walker carcinoma; format: in vivo, white rats; settings: for ALL, % of control / ALL (Average length of life) / % cured: rats; for ALL (Average length of life): injected daily for 5 days; for % cured: cured rats lived over two months after implantation
Method: The anti-carcinogenic activity of betulinol biacetate and betulonic aldehyde was assessed using 117-120 gram white rats implanted with worker's carcinoma and 21-23 gram white mice with artificially transplanted Ehrlich's tumor.
Solutions of 2.5% betulonic aldehyde and 0.05% betulinol biacetate were prepared in 10% polyvinylpyrrolidone containing Tween-80 (a sorbitan mono-9-octadecenate poly(oxy-1,2-ethanediyl)) stabilizer.
Mice were injected with 0.1-0.2 ml of either betulinol biacetate or betulonic aldehyde solution daily, starting 24 hours after transplantation, for the following 5 days. Rats were injected with 1.2 ml of either betulinol biacetate or betulonic aldehyde solution daily, starting 24 hours after implantation, for the following 5 days. Animals in control groups received the same amount of a 10% solution of polyvinylpyrrolidone.
The anti-tumor effect of betulinol acetate or betulonic aldehyde was determined by measuring the volume of the tumor on the 10th day after implantation. An average length of life (“ALL”) was calculated for each of the deceased animals. In addition, the percentage of cured rats was also determined.
The volume of the tumor was measured and calculated as a multiple of the quadrate of its similar diameter by the greater diameter. Thus, the effect was expressed as a ratio (“E/C”), in percent, of the tumor volume in rats treated with betulinol acetate or betulonic aldehyde (“E”) and the tumor volume in control rats (“C”). The effect of betulinol acetate or betulonic aldehyde on ALL was evaluated the same way.

[2] = BBA solubility in organic solvents; format: physicochemical; settings: for BBA Mass Content, %, at 20° C.: mass % in organic solvent
Method: Studies of betulinol biacetate solubility were conducted in order to determine the appropriate solvent for product crystallization and purification.

[3] = Group 1, Dose/day 204.6 (mg/kg body weight)
[4] = Group 2, Dose/day 106.9 (mg/kg body weight)

C=C(C)[C@@H]1CC[C@]2(COC(C)=O)CC[C@]3(C)[C@H](CC[C@@H]4[C@@]5(C)CC[C@H](OC(C)=O)C(C)(C)[C@@H]5CC[C@]43C)[C@@H]12 [Betulinol diacetate, Betulinol Biacetate]
ALL, % of control [1, 3]: 131.3%
ALL (Average length of life) [1, 3]: 28.5 days
% cured [1, 3]: 50.0%
ALL, % of control [1, 4]: 200.5%
ALL (Average length of life) [1, 4]: 43.5 days
% cured [1, 4]: 67.0%
rate of the tumor growth inhibited, of the control group ([1]; tumor volume on the 10th day, versus control group): 55.2%
BBA Mass Content, %, at 20° C. ([2]; Benzene): 100%
BBA Mass Content, %, at T (° C.) ([2]; Butanol, T 95 ° C.): 100%
BBA Mass Content, %, at 20° C. ([2]; Chloroform): 100%
BBA Mass Content, %, at 20° C. ([2]; Dimethylsulfoxide): 30%
BBA Mass Content, %, at T (° C.) ([2]; Dimethylsulfoxide, T 189 ° C.): 100%
BBA Mass Content, %, at T (° C.) ([2]; Dioxane, T 101 ° C.): 100%
BBA Mass Content, %, at 20° C. ([2]; Hexane): 15%
BBA Mass Content, %, at 20° C. ([2]; Toluene): 100%

From patent US6890533B2, “Betulinol derivatives” (Cornell Research Foundation, Inc., priority 1997, dated 2005)
